Source: patent US6121512A, “Cytochrome P-450 constructs and method of producing herbicide-resistant transgenic plants” (North Carolina State University, priority 1997, dated 2000)

Legend:
[1] = tested on: excised leaves of control tobacco plants transformed with pBI121; assay: In vivo herbicide metabolism assay, excised leaves of control tobacco; set-up: species or system Nicotiana tabacum cv SR1; conditions: after 14 hours; 1.2 nmol herbicide; standard error in parentheses; three pBI121 control plants
Description: (§1) Seeds from primary transgenic tobacco plants transformed with CYP71A10 and control plants transformed with the pBI121 vector were grown in Petri dishes containing MS salts and 100 μg/ml kanamycin. At five weeks post-seeding, kanamycin-resistant plantlets were transplanted into pots containing soil and grown an additional two weeks. Single leaves of approximately 10 cm^2 in size were excised and their petioles inserted into 100 μl of H2 O containing radiolabeled herbicide. The leaves were placed in a growth chamber maintaining a temperature of 27° C. and incubated until the entire volume of the herbicide solution was drawn up by the transpirational stream of the leaves (about 3 hrs). The leaves were subsequently transferred into an Eppendorf tube containing distilled water and further incubated for a total of 14 hours.
(§2) [^14 C]-labeled herbicide was extracted from the leaves by grinding for 5 minutes in 250 μl methanol with a plastic pellet pestle driven by an electric drill. After centrifugation for 3 minutes at 14,000 g, 75μl of the supernatant was spotted on a Whatman K6F silica plate and developed in a solvent system containing chloroforn/ethanol/acetic acid 135:10:15 (v/v/v). The separated herbicide derivatives were visualized using an imaging scanner. Substrate conversion was quantified based on the amount of herbicide absorbed, and the ratios of the parent compound and the produced metabolites determined from the TLC profiles.

[2] = biological target: T1, CYP73A1 (trans-cinnamic acid hydroxylase) (Helianthus tuberosus, UniProt Q04468); conditions: CYP73A1 expressed in yeast, chlortoluron ring-methyl hydroxylation; cited from earlier work
T1 construct: host or cells: yeast
T1 sequence (Q04468 1-505): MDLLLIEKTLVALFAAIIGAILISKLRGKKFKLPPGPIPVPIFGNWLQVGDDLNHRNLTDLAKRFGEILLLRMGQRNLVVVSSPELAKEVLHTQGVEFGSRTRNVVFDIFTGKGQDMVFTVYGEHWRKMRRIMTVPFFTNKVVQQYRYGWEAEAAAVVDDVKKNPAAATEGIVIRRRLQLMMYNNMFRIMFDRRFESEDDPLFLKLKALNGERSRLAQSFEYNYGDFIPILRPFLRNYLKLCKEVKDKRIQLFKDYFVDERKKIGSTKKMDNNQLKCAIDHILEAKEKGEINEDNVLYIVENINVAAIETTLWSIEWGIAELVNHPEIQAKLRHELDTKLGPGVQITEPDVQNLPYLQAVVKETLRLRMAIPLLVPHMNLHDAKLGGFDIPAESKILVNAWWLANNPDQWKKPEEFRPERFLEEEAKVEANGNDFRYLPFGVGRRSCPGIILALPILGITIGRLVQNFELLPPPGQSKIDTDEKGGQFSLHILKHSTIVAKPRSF

[3] = tested on: excised leaves of transgenic tobacco plant 25/2 progeny (CYP71A10-transformed); assay: In vivo herbicide metabolism assay, excised leaves of CYP71A10-transformed tobacco; set-up: species or system Nicotiana tabacum cv SR1; conditions: after 14 hours; 1.2 nmol herbicide; standard error in parentheses; four 25/2 plants
Description: as §1, §2

In the case of `Cc1ccc(NC(=O)N(C)C)cc1Cl` [Chlortoluron, chlortoluron], the “% of herbicide metabolized, Control” value [1] is given as 39 (7.5) %, the “turnover number of the heterologously expressed enzyme” value [2] is given as 0.014 /min and the “% of herbicide metabolized, CYP71A10-transformed” value [3] is given as 85 (8.1) %.
